Laboratory results from article PMC3744530, “CTA095, a Novel Etk and Src Dual Inhibitor, Induces Apoptosis in Prostate Cancer Cells and Overcomes Resistance to Src Inhibitors” (PLoS ONE, 2013).

Tested on: HUVEC cells
Test: HUVEC cell tube formation assay
Format: cell-based
Details: 5 μM, 6 h
Procedure: HUVEC cells were seeded on mitrogel and treated with CTA095 (0 and 5 μM) for 6 h. Vascular tube formation was visualized using a microscope.
Figure 8 Inhibition of tube formation and cell migration by CTA095. Inhibition of vascular tube formation of HUVEC endothelial cells (A) and inhibition of migration (wound healing) of PC3 human prostate cancer cells (B) by CTA095. (A) HUVEC cells were seed on mitrogel and treated with CTA095 (0 and 5 μM) for 6 h. Vascular tube formation was visualized using microscope. (B) PC3 cells were grown in 6-well plate to 60% confluency. Then wounds were made and treated with CTA095 (0 and 5 μM). Cell migration (wound healing) was visualized under microscope at the indicated times.

SMILES: O=c1[nH]c2cc3nc(-c4ccc5oc6ccccc6c5c4)n(CCCN4CCCCC4)c3cc2nc1-c1ccccc1 [CTA095, 2-(dibenzo[b,d]furan-2-yl)-7-phenyl-1-(3-(piperidin-1-yl)propyl)-1H-imidazo[4,5-g]quinoxalin-6(5H)-one]
- tube formation of HUVEC cells: disrupted
